# According to paper PMC6704710, “Preclinical evaluation of 3D185, a novel potent inhibitor of FGFR1/2/3 and CSF-1R, in FGFR-dependent and macrophage-dominant cancer models” (Journal of Experimental & Clinical Cancer Research : CR, 2019):
# Assays:
# Experiment in all cases: Eurofins kinase panel
# Format in all cases: biochemical
# Details in all cases: read-out: Inhibition rate (%)
# ALK1(h) = target: T1, ALK1(h) (Homo sapiens, UniProt P37023)
# T1 construct: purchased Eurofins (KinaseProfiler)
# T1 sequence (P37023 22-503): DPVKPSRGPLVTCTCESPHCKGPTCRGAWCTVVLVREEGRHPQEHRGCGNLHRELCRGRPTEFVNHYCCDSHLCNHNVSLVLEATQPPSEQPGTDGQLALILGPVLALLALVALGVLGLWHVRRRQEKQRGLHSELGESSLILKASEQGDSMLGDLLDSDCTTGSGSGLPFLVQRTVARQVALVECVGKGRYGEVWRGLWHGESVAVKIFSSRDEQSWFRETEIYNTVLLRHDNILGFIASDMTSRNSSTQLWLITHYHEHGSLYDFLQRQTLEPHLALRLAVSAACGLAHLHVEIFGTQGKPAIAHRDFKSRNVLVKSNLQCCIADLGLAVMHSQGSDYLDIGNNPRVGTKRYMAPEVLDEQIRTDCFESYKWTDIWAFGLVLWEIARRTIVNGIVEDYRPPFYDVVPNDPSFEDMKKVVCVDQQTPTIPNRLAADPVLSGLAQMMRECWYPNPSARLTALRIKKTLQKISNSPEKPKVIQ
# CDK4/cyclinD3(h) = target: T2, CDK4/cyclinD3(h) (Homo sapiens, UniProt P11802)
# T2 construct: purchased Eurofins (KinaseProfiler)
# T2 sequence (P11802 whole entry): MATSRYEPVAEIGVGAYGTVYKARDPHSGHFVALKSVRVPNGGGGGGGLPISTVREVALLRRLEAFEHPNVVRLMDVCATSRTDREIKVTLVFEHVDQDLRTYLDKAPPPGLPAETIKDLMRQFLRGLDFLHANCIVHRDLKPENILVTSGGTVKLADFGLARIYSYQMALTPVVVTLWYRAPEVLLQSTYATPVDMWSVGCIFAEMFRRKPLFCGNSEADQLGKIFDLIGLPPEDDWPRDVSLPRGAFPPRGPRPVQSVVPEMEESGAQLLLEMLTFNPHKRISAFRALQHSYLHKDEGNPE
# T2 sequence (P30281 whole entry partner): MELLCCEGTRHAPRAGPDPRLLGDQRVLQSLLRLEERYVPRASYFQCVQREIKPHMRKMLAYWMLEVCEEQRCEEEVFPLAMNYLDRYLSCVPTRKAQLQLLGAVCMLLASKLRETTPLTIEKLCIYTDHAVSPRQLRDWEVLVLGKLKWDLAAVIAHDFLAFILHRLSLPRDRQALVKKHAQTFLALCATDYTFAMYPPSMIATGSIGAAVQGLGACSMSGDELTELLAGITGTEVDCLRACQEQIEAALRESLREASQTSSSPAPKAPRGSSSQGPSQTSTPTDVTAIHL
# EGFR(T790M)(h) = target: T3, EGFR(T790M)(h) (Homo sapiens, UniProt P00533, T790M)
# T3 construct: purchased Eurofins (KinaseProfiler)
# Fms(Y969C)(h) = target: T4, Fms(Y969C)(h) (Homo sapiens, UniProt P07333, Y969C)
# T4 construct: purchased Eurofins (KinaseProfiler)
# T4 sequence (P07333 20-972 Y969C): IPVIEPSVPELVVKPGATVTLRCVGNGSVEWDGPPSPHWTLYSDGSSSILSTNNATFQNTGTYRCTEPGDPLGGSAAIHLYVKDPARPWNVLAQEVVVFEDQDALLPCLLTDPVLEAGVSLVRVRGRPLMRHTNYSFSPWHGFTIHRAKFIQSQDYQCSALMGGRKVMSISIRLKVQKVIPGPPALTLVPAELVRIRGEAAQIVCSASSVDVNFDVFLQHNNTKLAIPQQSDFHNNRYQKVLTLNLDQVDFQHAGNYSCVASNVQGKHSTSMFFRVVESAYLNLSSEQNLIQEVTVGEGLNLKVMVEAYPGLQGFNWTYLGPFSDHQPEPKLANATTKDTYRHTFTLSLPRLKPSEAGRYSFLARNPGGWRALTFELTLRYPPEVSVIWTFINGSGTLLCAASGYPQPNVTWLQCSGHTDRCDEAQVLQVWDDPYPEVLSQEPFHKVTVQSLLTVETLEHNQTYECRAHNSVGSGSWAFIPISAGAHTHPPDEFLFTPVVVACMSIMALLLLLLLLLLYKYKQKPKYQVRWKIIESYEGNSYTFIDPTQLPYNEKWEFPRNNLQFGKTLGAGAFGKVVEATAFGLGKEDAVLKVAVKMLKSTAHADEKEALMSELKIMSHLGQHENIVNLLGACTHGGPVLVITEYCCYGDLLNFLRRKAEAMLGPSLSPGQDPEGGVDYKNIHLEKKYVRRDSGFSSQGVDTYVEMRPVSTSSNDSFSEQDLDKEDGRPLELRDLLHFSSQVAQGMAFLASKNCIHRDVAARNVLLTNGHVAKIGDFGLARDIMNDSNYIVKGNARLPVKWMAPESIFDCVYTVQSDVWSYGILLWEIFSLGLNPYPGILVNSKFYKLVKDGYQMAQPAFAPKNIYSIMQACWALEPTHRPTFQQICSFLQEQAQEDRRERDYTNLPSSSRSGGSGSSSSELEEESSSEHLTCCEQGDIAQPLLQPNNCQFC
# Fyn(h) = target: T5, Fyn(h) (Homo sapiens, UniProt P06241)
# T5 construct: purchased Eurofins (KinaseProfiler)
# T5 sequence (P06241 whole entry): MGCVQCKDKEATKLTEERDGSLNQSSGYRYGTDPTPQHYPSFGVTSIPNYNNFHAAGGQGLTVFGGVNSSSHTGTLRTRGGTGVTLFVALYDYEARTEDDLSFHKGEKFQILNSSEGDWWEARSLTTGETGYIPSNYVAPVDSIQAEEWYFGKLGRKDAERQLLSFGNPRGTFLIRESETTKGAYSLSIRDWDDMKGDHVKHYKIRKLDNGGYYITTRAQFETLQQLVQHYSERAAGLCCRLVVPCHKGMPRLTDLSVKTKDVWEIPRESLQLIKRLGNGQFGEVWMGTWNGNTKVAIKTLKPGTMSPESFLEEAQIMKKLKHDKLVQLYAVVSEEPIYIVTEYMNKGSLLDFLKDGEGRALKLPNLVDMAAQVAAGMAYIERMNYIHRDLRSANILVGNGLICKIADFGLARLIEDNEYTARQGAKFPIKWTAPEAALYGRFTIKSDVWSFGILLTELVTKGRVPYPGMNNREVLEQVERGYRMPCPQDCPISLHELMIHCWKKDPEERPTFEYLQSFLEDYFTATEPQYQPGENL
# LKB1(h) = target: T6, LKB1(h) (Homo sapiens, UniProt Q15831)
# T6 construct: purchased Eurofins (KinaseProfiler)
# T6 sequence (Q15831 1-433): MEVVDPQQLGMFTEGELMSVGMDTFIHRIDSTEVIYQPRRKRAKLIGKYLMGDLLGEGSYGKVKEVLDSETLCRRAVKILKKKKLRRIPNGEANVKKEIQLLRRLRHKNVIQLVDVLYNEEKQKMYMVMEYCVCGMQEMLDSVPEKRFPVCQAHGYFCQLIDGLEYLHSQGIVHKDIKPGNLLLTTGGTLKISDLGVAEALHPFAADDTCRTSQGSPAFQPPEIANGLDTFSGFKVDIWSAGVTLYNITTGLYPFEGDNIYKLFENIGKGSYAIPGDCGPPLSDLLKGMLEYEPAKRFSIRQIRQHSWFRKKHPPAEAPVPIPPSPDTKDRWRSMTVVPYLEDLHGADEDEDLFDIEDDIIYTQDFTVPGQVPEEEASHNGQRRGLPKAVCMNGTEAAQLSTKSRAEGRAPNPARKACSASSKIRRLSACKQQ
# T6 sequence (Q7RTN6 1-431 partner): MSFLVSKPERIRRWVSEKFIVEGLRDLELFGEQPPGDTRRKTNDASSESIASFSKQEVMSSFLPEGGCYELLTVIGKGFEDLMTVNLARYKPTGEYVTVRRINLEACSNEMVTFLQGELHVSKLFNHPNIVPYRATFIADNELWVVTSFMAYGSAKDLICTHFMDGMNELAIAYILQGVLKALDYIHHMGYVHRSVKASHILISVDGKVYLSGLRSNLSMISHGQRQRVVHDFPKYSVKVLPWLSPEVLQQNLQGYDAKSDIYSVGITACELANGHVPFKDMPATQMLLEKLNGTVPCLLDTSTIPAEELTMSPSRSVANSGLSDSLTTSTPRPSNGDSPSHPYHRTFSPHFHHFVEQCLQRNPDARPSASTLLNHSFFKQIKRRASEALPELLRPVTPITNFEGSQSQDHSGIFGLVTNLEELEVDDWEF
# T6 sequence (Q9Y376 1-341 partner): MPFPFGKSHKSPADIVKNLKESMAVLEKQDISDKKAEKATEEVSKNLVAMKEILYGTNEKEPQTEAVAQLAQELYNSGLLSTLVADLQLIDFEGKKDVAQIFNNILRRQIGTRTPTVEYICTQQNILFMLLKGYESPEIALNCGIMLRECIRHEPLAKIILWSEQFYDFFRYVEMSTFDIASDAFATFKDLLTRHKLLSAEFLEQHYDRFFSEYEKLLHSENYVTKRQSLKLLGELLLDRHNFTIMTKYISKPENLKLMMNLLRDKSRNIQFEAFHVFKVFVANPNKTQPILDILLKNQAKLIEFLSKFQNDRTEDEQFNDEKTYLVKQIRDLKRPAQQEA
# MAPK1(h) = target: T7, MAPK1(h) (Homo sapiens, UniProt P27361)
# T7 construct: purchased Eurofins (KinaseProfiler)
# PAK5(h) = target: T8, PAK5(h) (Homo sapiens, UniProt Q9P286)
# T8 construct: purchased Eurofins (KinaseProfiler)
# PDGFRβ(h) = target: T9, PDGFRβ(h) (Homo sapiens, UniProt P09619)
# T9 construct: purchased Eurofins (KinaseProfiler)
# T9 sequence (P09619 33-1106): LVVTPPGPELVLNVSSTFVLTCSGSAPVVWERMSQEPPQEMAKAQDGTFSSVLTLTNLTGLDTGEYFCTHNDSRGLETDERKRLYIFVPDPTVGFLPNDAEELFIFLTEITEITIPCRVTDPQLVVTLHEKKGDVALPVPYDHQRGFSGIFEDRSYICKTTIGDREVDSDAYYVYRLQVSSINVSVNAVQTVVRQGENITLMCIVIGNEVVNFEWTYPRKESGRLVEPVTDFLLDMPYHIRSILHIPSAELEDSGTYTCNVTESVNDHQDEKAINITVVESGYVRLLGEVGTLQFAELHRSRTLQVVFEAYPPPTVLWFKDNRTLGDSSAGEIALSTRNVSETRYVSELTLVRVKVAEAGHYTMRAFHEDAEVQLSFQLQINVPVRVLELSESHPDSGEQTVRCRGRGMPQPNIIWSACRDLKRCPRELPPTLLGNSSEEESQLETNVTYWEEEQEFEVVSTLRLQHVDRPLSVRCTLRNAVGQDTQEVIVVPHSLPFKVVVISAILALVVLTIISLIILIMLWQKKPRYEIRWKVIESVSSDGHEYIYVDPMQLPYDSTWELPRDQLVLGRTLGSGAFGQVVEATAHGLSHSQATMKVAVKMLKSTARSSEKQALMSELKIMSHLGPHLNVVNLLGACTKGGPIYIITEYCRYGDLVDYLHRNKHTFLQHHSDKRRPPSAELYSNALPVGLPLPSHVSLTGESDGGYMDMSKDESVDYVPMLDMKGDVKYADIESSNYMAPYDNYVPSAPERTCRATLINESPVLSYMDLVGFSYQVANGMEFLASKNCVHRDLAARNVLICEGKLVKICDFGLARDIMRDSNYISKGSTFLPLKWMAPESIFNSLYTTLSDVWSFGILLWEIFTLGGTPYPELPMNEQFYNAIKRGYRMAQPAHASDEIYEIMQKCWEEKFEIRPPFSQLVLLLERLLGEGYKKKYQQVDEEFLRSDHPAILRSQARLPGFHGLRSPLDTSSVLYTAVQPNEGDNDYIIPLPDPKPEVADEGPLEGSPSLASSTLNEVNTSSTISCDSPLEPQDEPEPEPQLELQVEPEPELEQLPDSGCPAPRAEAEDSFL
# PKCγ(h) = target: T10, PKCγ(h) (Homo sapiens, UniProt P05129)
# T10 construct: purchased Eurofins (KinaseProfiler)
# SBK1(h) = target: T11, SBK1(h) (Homo sapiens, UniProt Q52WX2)
# T11 construct: purchased Eurofins (KinaseProfiler)
# T11 sequence (Q52WX2 whole entry): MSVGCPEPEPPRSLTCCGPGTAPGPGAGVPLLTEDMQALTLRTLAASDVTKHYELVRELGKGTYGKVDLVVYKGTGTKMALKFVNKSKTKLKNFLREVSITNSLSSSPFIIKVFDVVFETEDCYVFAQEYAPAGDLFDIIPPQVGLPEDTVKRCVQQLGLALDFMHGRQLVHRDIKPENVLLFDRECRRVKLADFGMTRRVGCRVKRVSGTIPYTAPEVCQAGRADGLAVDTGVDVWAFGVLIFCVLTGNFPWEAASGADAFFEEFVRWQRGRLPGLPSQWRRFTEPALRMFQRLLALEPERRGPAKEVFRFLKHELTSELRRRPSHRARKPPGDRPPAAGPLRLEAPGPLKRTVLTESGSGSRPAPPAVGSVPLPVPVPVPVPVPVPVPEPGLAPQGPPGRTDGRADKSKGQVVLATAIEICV
# SGK(h) = target: T12, SGK(h) (Homo sapiens, UniProt O00141)
# T12 construct: purchased Eurofins (KinaseProfiler)
# T12 sequence (O00141 1-431): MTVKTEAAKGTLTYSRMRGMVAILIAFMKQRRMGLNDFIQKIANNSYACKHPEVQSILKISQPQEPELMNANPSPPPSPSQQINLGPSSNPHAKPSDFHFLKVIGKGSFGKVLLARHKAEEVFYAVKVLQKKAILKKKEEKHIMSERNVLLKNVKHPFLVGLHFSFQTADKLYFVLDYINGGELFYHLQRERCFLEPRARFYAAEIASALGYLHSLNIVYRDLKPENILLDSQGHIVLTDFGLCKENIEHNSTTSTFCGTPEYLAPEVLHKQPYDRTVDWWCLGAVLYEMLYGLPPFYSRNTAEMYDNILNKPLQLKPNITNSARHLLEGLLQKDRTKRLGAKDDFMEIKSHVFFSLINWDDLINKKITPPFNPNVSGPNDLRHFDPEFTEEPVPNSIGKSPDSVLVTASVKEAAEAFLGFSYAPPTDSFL
structure (smiles),measurement,setting,value
COc1cc(OC)c(Cl)c(-c2ccc3c(NC(=O)c4ccc(N5CCNC(C)(C)C5)cc4)n[nH]c3n2)c1Cl [3D185],inhibition at 0.01 µM,ALK1(h); 10 nM,3%
same,inhibition at 0.1 µM,ALK1(h); 100 nM,-7%
same,inhibition at 1 µM,ALK1(h); 1000 nM,-1%
same,inhibition at 0.01 µM,CDK4/cyclinD3(h); 10 nM,5%
same,inhibition at 0.1 µM,CDK4/cyclinD3(h); 100 nM,-4%
same,inhibition at 1 µM,CDK4/cyclinD3(h); 1000 nM,11%
same,inhibition at 0.01 µM,EGFR(T790M)(h); 10 nM,-15%
same,inhibition at 0.1 µM,EGFR(T790M)(h); 100 nM,-8%
same,inhibition at 1 µM,EGFR(T790M)(h); 1000 nM,29%
same,inhibition at 0.01 µM,Fms(Y969C)(h); 10 nM,34%
same,inhibition at 0.1 µM,Fms(Y969C)(h); 100 nM,75%
same,inhibition at 1 µM,Fms(Y969C)(h); 1000 nM,95%
same,inhibition at 0.01 µM,Fyn(h); 10 nM,8%
same,inhibition at 0.1 µM,Fyn(h); 100 nM,27%
same,inhibition at 1 µM,Fyn(h); 1000 nM,80%
same,inhibition at 0.01 µM,LKB1(h); 10 nM,-9%
same,inhibition at 0.1 µM,LKB1(h); 100 nM,7%
same,inhibition at 1 µM,LKB1(h); 1000 nM,2%
same,inhibition at 0.01 µM,MAPK1(h); 10 nM,-5%
same,inhibition at 0.1 µM,MAPK1(h); 100 nM,-6%
same,inhibition at 1 µM,MAPK1(h); 1000 nM,0%
same,inhibition at 0.01 µM,PAK5(h); 10 nM,-11%
same,inhibition at 0.1 µM,PAK5(h); 100 nM,-2%
same,inhibition at 1 µM,PAK5(h); 1000 nM,5%
same,inhibition at 0.01 µM,PDGFRβ(h); 10 nM,1%
same,inhibition at 0.1 µM,PDGFRβ(h); 100 nM,-1%
same,inhibition at 1 µM,PDGFRβ(h); 1000 nM,17%
same,inhibition at 0.01 µM,PKCγ(h); 10 nM,-4%
same,inhibition at 0.1 µM,PKCγ(h); 100 nM,-8%
same,inhibition at 1 µM,PKCγ(h); 1000 nM,-1%
same,inhibition at 0.01 µM,SBK1(h); 10 nM,-13%
same,inhibition at 0.1 µM,SBK1(h); 100 nM,-3%
same,inhibition at 1 µM,SBK1(h); 1000 nM,-10%
same,inhibition at 0.01 µM,SGK(h); 10 nM,-4%
same,inhibition at 0.1 µM,SGK(h); 100 nM,-13%
same,inhibition at 1 µM,SGK(h); 1000 nM,-7%
